Experimental data from US4471117A, “3,4-Dihydro-2H-pyrimido(2,1-b)benzothiazoles” (Janssen Pharmaceutica N.V., priority 1980, dated 1984).
Counter-ions that a name gives are not always drawn. Like-named read-outs stand apart in the source and are kept apart here.

Assays:
[1] = molecular target: T1, monoamine oxidase (type A, tryptamine substrate) (Rattus norvegicus, UniProt P21396); test: In-vitro monoamine oxidase inhibition, [14C]tryptamine as substrate; type: biochemical; conditions: rat brain monoamine oxidase extract, 37° C., 20 minutes, pH 7.4, read-out: I.C.50 -value using as substrate [14C]tryptamine
T1 sequence (P21396 1-526): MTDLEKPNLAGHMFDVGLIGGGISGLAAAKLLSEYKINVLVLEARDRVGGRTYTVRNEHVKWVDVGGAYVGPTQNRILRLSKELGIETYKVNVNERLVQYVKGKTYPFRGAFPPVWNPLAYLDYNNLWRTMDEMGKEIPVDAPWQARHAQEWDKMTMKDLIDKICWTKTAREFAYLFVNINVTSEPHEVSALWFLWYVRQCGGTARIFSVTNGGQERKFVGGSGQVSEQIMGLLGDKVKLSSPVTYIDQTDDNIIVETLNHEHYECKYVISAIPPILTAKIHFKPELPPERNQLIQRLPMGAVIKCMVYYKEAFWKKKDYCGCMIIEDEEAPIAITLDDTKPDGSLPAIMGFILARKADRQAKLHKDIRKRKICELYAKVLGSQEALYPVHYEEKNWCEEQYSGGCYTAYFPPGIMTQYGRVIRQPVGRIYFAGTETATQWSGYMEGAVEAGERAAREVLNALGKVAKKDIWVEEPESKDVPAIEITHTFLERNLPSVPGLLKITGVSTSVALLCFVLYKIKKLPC

[2] = molecular target: T2, monoamine oxidase (type B, β-phenylethylamine substrate) (Rattus norvegicus, UniProt P19643); test: In-vitro monoamine oxidase inhibition, [14C]phenylethylamine hydrochloride as substrate; type: biochemical; conditions: rat brain monoamine oxidase extract, 37° C., 20 minutes, pH 7.4, read-out: I.C.50 -value using as substrate [14C]phenylethylamine.HCl
T2 sequence (P19643 1-520): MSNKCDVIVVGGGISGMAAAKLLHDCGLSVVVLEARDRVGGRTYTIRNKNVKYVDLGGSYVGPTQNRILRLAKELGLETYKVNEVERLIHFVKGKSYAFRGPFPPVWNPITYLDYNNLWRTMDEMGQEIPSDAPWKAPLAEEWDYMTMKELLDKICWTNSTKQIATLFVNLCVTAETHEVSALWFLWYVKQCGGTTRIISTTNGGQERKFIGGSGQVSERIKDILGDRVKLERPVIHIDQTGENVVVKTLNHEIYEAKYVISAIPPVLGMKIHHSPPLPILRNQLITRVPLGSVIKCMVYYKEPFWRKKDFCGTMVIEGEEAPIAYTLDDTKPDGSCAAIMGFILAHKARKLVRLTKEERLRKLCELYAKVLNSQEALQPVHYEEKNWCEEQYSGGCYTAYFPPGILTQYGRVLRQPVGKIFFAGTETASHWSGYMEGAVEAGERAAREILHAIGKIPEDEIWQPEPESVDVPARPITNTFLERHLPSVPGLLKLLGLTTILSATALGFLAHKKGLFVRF

SMILES: O=C(c1ccccc1)c1ccc2c(c1)N1CCCN=C1S2 [7-COC6 H5]
- IC50 ([1]; Table 1): 120 nM
- IC50 ([2]; Table 1): 2500 nM

SMILES: NC(=O)Nc1ccc2c(c1)N1CCCN=C1S2 [Example 7-NHCONH2, N-(3,4-dihydro-2H-pyrimido[2,1-b]benzothiazol-7-yl)urea]
- IC50 ([1]; Table 1): 850 nM
- IC50 ([2]; Table 1): 12000 nM

SMILES: CCNc1cccc2c1SC1=NCCCN12 [9-NHC2 H5, N-ethyl-3,4-dihydro-2H-pyrimido[2,1-b]benzothiazol-9-amine]
- IC50 ([1]; Table 1): 3 nM
- IC50 ([2]; Table 1): 100000 nM

SMILES: CCCCc1ccc2c(c1)SC1=NCCCN12 [8-C4 H9]
- IC50 ([1]; Table 1): 32 nM
- IC50 ([2]; Table 1): 260 nM

SMILES: COc1cc(CNc2ccc3c(c2)SC2=NCCCN23)cc(OC)c1OC [8-NHCH2 [3,4,5-(OCH3)3C6 H2]]
- IC50 ([1]; Table 1): 20000 nM
- IC50 ([2]; Table 1): 34 nM

SMILES: c1cc2c(cc1C1CCCCC1)SC1=NCCCN12 [8-c.C6 H11]
- IC50 ([1]; Table 1): 8.5 nM
- IC50 ([2]; Table 1): 50 nM

SMILES: Nc1cccc2c1SC1=NCCCN12 [Example 9-NH2, 3,4-dihydro-2H-pyrimido[2,1-b]benzothiazol-9-amine dihydrochloride]
- IC50 ([1]; Table 1): 350 nM
- IC50 ([2]; Table 1): 90000 nM

SMILES: CCC(CC)Nc1ccc2c(c1)N1CCCN=C1S2 [7-NHCH(C2 H5)2, N-(1-ethylpropyl)-3,4-dihydro-2H-pyrimido[2,1-b]benzothiazol-7-amine]
- IC50 ([1]; Table 1): 3.4 nM
- IC50 ([2]; Table 1): 305 nM

SMILES: Cc1ccc(C(C)(C)C)c2c1N1CCCN=C1S2 [6-CH3,9-C(CH3)3]
- IC50 ([1]; Table 1): 65 nM
- IC50 ([2]; Table 1): > 100000 nM

SMILES: c1cc2c(cc1NC1CCCC1)N1CCCN=C1S2 [7-NHc.C5 H9]
- IC50 ([1]; Table 1): 5 nM
- IC50 ([2]; Table 1): 120 nM

SMILES: CCOC(=O)C(=CNc1ccc2c(c1)SC1=NCCCN12)C(=O)OCC [8-NHCHC(COOEt)2]
- IC50 ([1]; Table 1): 20000 nM
- IC50 ([2]; Table 1): 160 nM

SMILES: c1ccc2cc3c(cc2c1)SC1=NCCCN13 [7,8-(CHCHCHCH)]
- IC50 ([1]; Table 1): 30 nM
- IC50 ([2]; Table 1): 9000 nM

SMILES: COc1ccc(CNc2ccc3c(c2)N2CCCN=C2S3)cc1 [7-NHCH2 (4-OCH3C6 H4)]
- IC50 ([1]; Table 1): 250 nM
- IC50 ([2]; Table 1): 65 nM

SMILES: CC(C)Nc1ccc2c(c1)SC1=NCCCN12 [8-NHi.C3 H7]
- IC50 ([1]; Table 1): 90 nM
- IC50 ([2]; Table 1): 20000 nM

SMILES: CCCc1ccc2c(c1)N1CCCN=C1S2 [7-C3 H7]
- IC50 ([1]; Table 1): 20 nM
- IC50 ([2]; Table 1): 1200 nM

SMILES: Cc1ccc(CNc2ccc3c(c2)SC2=NCCCN23)cc1 [8-NHCH2 (4-CH3C6 H4)]
- IC50 ([1]; Table 1): 1000 nM
- IC50 ([2]; Table 1): 20 nM

SMILES: C=CC[N+]1=C2Sc3ccc(CCCCCCCCC)cc3N2CCC1
- IC50 ([1]; Table 2): 250 nM
- IC50 ([2]; Table 2): 380 nM

SMILES: CC[N+]1=C2Sc3ccc(NC(C)C)cc3N2CCC1
- IC50 ([1]; Table 2): 11 nM
- IC50 ([2]; Table 2): 45000 nM
